Reference: US11590117B2, “Treatment of a hematologic malignancy with 2-(4-chlorophenyl)-n-((2-(2,6-dioxopiperidin-3-yl)-1-oxoisoindolin-5-yl)methyl)-2,2-difluoroacetamide” (priority 2016, dated 2023)
pEC50: −log10 of the molar value. Read-outs that look alike come from different tables or passages of the source.

Assays:
Type in all cases: cell-based
[1] = test system: AML-193; assay: IncuCyte Kinetic Caspase-3/7 Apoptosis Assay; settings: Homo sapiens, read-out: Compound 1-induced Apoptosis EC50
From the text: (§1) Methods. Acute Myeloid Leukemia Cell Line Panel: Human AML cell lines, AML-193, F36-P, GDM-1, HL-60, HNT-34, Kasumi-1, Kasumi-3, KG-1, KG-1a, ML-2, MOLM-13, MUTZ-8, MV-4-11, NOMO-1, OCI-AML2, OCI-AML3, SIG-M5, TF-1, THP-1, and UT-7 were obtained from American Type Culture Collection (ATCC; Manassas, Va.) and Deutsche Sammlung von Mikroorganismen und Zellkulturen (DSMZ) (Germany) cell banks. The AML panel includes cell line(s) from each FAB classification (M0-M7) (Table 7).
(§2) Cell Culture Conditions: Cell lines were maintained in growth media containing 20% fetal bovine serum (FBS) (Hyclone Cat no. SH30910.03, Lot no. AZF188864; Corning REFno. 35-010-CV, Lot no. 35010124) supplemented with or without 10 ng/mL human recombinant granulocyte-macrophage colony stimulating factor (Sigma-Aldrich Cat no. SRP3050) (Table 8). Medium was purchased from ATCC (Cat no. 30-2001, 30-2002, 30-2003, 30-2005) and Gibco (REF no. 12561-056). Human recombinant granulocyte macrophage colony stimulating factor (GM-CSF) was expressed in Escherichia coli. The cell doubling times for each cell line were provided by ATCC and DSMZ. Cells were maintained in humidified incubators at 5% carbon dioxide (CO2). All cell lines were acclimated to Eagle's minimal essential medium (EMEM)+20% FBS with or without GM-CSF over 2 to 4 weeks prior to live cell imaging using IncuCyte Zoom (Essen Biosciences). The use of EMEM was necessary to eliminate background fluorescence caused by riboflavin in most media.
(§3) Incubation of Cell Cultures with Compound 1: Compound 1 was provided for studies by Celgene chemistry group at a stock concentration of 30 mM in 20 μL dimethyl sulfoxide (DMSO) frozen. Costar 96-well cell culture plates (Corning Cat no. 3595) were coated with 100 μL of 10 µg/mL fibronectin (Sigma-Aldrich Cat no. F1141) for 4 hours at 37° C. and immediately used or refrigerated overnight for later use. Cells (3000 to 6000 cells) were plated in growth medi in fibronectin-coated 96-well plates and incubated for a minimum of a few hours to overnight. Cells were incubated with a 12-point concentration response in triplicate with Compound 1 ([…]) including DMSO and Media controls. A 3-fold serial dilution of Compound 1 starting from a concentration of 200 μM in 0.6% DMSO (diluted in Media) was performed. For most sensitive cell lines, a 3-fold serial dilution of Compound 1 starting from a concentration of 20 μM in 0.6% DMSO (diluted in media) was performed. A volume of 5 μL or 10 μL for each dilution was added to 100 μL or 200 μL cells, respectively (0.3% DMSO final) and incubated for live cell imaging.
(§4) Live Cell Imaging on IncuCyte Zoom: Following incubation of cells with Compound 1, diluted Caspase 3/7 reagent (Essen Biosciences Cat no. 4440) is added to each well. The Caspase-3/7 reagent couples the activated caspase-3/7 recognition motif (DEVD) to NucView™488, a DNA intercalating dye. The cleavage of substrate by activated caspase-3/7 results in the release of the DNA dye and green fluorescent staining of nuclear DNA. This allows imaging of cells undergoing caspase-3/7 mediated apoptosis over time. Caspase-3/7 activation was quantified using the IncuCyte™ ZOOM basic analyzer. Red-labeled cell lines were also imaged over time using the IncuCyte™ ZOOM basic analyzer, for determination of both cell doubling time and Compound 1 effect on cell viability. Experiments were performed at least two times in each cell line.
(§5) Next, a 4 parameter log-logistic model was used to determine relative EC50 at each time point by the ‘drm’ function from the R ‘drc’ package (Ritz C, Streibig J C. Bioassay Analysis using R. J. Statist. Software 2005; 12(5):1-22). Goodness of fit was measured by R squared (coefficient of determination or the amount of variation explained by the model fit) of ≥80%, and EC50 parameter was assessed by having a ratio of standard error to the parameter of ≤40%, and the presence of at least one concentration point above and below the reported EC50. […]

[2] = test system: OCI-AML2; assay: IncuCyte Kinetic Caspase-3/7 Apoptosis Assay; settings: Homo sapiens, read-out: Compound 1-induced Apoptosis EC50
From the text: as §1, §2, §3, §4, §5

[3] = test system: Bone marrow CD34+ cells from healthy donors (myeloid differentiation); assay: Neutrophil maturation ex vivo, bone marrow CD34+ cells, flow cytometry
Protocol: Compound 1 effects on the proliferation of CFU-GM progenitor cells are of special relevance because of the role of these progenitor cells in drug-induced neutropenia. Neutrophils are derived from CFU-GM progenitors occurring through distinct stages, from progenitor cells through myeloblasts (stage I), promyelocytes (stage II) and myelocytes (stage III) that finally mature towards neutrophils with banded or segmented nuclei. The effects of Compound 1 on neutrophil maturation were determined by using two-dimensional cultivation of progenitors followed by flow cytometry. Bone marrow CD34+ cells obtained from healthy volunteers were transferred to tissue culture medium and myeloid differentiation was induced ex vivo by adding stem cell factor (SCF), Fms-related tyrosine kinase 3 ligand (Flt-3 ligand), and granulocyte colony stimulating factor (G-CSF). Concentrations of Compound 1 up to 30 nM and exposure times of 8, 24, and 72 hours starting at Day 0 were selected to evaluate the effect of Compound 1 in this system. After exposure to Compound 1, cells were washed and then incubated in culture medium in the absence of Compound 1 until Day 14. Cell differentiation and apoptosis were measured in a flow cytometry-based method at Days 3, 7, 10, and 14 of culture, with apoptotic and dead cells identified as Annexin V positive and 7-aminoactinomycin D positive.
In FIG. 34, Bone marrow C34+ cells from healthy donors were incubated with 30 nM Compound 1 or DMSO. Compound 1 was washed out after 8, 24 or 72 hours, the medium was replaced, and the cultures were incubated until Day 14 in the absence of Compound 1 or DMSO. Cells were classified from most immature to most mature as HPC, Stage I, Stage II, Stage III and Stage IV according to their expression of CD34, CD33 and CD11b. Then apoptotic cells from each stage were identified as positive for Annexin V and labeled as AV+ HPC, AV+ Stage I, AV+ Stage II, AV+ Stage II and AV+ Stage IV. […] Representative results are shown for bone marrow progenitors from one of two healthy donors evaluated. […]

O=C1CCC(N2Cc3cc(CNC(=O)C(F)(F)c4ccc(Cl)cc4)ccc3C2=O)C(=O)N1 (centres unmarked) [Compound 1, 2-(4-chlorophenyl)-N-((2-(2,6-dioxopiperidin-3-yl)-1-oxoisoindolin-5-yl)methyl)-2,2-difluoroacetamide] showed a pEC50 ([1]; 24 hr) of 6.60, a pEC50 ([1]; 48 hr) of 7.05 and a pEC50 ([1]; 72 hr) of 7.33. It also gave a pEC50 ([1]; 96 hr) of 7.22, a pEC50 ([2]; 24 hr) of 6.36 and a pEC50 ([2]; 48 hr) of 7.09. For the same molecule, the pEC50 ([2]; 72 hr) was 7.39, the pEC50 ([2]; 96 hr) was 7.42 and the “viability during neutrophil maturation” value ([3]; 30 nM (highest concentration tested), exposure 24 hours and 72 hours) was “decreased”. For the same molecule, the “cell viability after removal of Compound 1” value ([3]; 30 nM, cultures exposed for 24 hours) was “reaching control values at Day 10” and the “viability during neutrophil maturation” value ([3]; ≤3 nM in 24-hour and 72-hour exposure groups, or 0.03 to 30 nM with 8 hours exposure) was “no reduction in viability”.
